Source: US9346809B2 (LEO PHARMA A/S, priority 2009, dated 2016)
Where two headings read alike, the source gives them in different places.

Key:
Type in all cases: biochemical
[1] = molecular target: T1, JAK1 (aa 850-1154, catalytic domain, GST-tag) (Homo sapiens, UniProt P23458); experiment: JAK kinase assay (HTRF, phosphorylation of TK substrate-biotin), JAK1; details: ATP at Km (7 μM), read-out: JAK1 kinase inhibitory activity (EC50 indicator)
T1 construct: JAK1 (aa 850-1154) and TYK2 (aa 871-1187) are expressed with an N-terminally fused GST-tag; GST (N); purchased Carna Biosciences, Inc; host or cells: baculovirus expression system
T1 sequence (P23458 850-1154): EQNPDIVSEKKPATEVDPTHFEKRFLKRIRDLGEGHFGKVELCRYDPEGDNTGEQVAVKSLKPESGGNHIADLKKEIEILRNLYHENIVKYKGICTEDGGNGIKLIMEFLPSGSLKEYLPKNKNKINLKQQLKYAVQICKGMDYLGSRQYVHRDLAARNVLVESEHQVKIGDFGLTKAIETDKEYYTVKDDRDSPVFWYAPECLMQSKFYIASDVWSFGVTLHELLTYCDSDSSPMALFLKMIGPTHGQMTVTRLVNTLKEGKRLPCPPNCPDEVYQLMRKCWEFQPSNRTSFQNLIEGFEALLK
In short: (§1)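 Catalytic-domain kinases phosphorylated 1 μM biotin-TK substrate at ATP Km (JAK1 7 μM, JAK2 4 μM, JAK3 2 μM, TYK2 13 μM) in Hepes pH 7.0 with DTT and MgCl2, for 20-30 min at RT; JAK1 and TYK2 also had 50 nM SEB. Detection was by HTRF (streptavidin-XL665/Cryptate antibody) overnight, giving EC50.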

[2] = molecular target: T2, JAK2 (catalytic domain, His-tag) (Homo sapiens, UniProt O60674); experiment: JAK kinase assay (HTRF, phosphorylation of TK substrate-biotin), JAK2; details: ATP at Km (4 μM), read-out: JAK2 kinase inhibitory activity (EC50 indicator)
T2 construct: All four purified enzymes contain only the catalytic domain; His (N); purchased Carna Biosciences, Inc; host or cells: baculovirus expression system
T2 sequence (O60674 849-1124 limits assumed): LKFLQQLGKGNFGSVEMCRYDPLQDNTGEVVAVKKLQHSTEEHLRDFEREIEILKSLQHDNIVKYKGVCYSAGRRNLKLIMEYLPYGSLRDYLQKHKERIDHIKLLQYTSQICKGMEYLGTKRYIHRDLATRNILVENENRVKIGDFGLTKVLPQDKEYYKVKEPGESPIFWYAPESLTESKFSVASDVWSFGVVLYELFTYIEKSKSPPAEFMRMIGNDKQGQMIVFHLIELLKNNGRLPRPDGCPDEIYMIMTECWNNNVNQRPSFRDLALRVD
In short: as §1

[3] = molecular target: T3, JAK3 (catalytic domain, His-tag) (Homo sapiens, UniProt P52333); experiment: JAK kinase assay (HTRF, phosphorylation of TK substrate-biotin), JAK3; details: ATP at Km (2 μM), read-out: JAK3 kinase inhibitory activity (EC50 indicator)
T3 construct: All four purified enzymes contain only the catalytic domain; His (N); purchased Carna Biosciences, Inc; host or cells: baculovirus expression system
T3 sequence (P52333 822-1111 limits assumed): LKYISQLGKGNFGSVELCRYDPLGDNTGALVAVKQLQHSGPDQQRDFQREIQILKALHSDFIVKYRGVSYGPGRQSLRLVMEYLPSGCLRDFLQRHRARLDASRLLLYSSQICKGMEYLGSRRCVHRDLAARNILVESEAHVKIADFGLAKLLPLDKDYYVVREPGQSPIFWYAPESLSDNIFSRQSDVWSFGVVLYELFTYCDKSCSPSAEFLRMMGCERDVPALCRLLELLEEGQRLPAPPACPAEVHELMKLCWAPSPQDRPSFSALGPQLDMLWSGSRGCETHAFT
In short: as §1

[4] = molecular target: T4, TYK2 (aa 871-1187, catalytic domain, GST-tag) (Homo sapiens, UniProt P29597); experiment: JAK kinase assay (HTRF, phosphorylation of TK substrate-biotin), TYK2; details: ATP at Km (13 μM), read-out: TYK2 kinase inhibitory activity (EC50 indicator)
T4 construct: JAK1 (aa 850-1154) and TYK2 (aa 871-1187) are expressed with an N-terminally fused GST-tag; GST (N); purchased Carna Biosciences, Inc; host or cells: baculovirus expression system
T4 sequence (P29597 871-1187): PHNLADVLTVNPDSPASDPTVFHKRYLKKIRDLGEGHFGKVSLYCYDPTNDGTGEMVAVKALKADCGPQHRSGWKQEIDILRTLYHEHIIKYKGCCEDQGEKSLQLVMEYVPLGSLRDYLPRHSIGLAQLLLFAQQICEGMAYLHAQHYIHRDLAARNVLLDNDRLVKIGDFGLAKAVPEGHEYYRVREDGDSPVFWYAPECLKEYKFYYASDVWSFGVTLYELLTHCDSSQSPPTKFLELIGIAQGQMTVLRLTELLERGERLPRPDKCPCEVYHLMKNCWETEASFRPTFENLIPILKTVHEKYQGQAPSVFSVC
In short: as §1

Compound	EC50 ([1]; HTRF assay) [nM]	EC50 ([2]; HTRF assay) [nM]	EC50 ([3]; HTRF assay) [nM]	EC50 ([4]; HTRF assay) [nM]	EC50 [1] [nM]	EC50 [2] [nM]	EC50 [3] [nM]	EC50 [4] [nM]
NS(=O)(=O)c1c[nH]c(C(=O)N2CCN(c3ncnc4[nH]ccc34)CC23CC3)c1 [Example 402, 5-[7-(7H-Pyrrolo[2,3-d]pyrimidin-4-yl)-4,7-diaza-spiro[2.5]octane-4-carbonyl]-1H-pyrrole-3-sulfonic acid amide]	< 100	< 100	< 100	< 100	–	–	–	–
CC1CN(C(=O)c2cccc(C#N)c2)C2(CC2)CN1c1ncnc2[nH]ccc12 (centres unmarked) [Example 145, 3-[6-Methyl-7-(7H-pyrrolo[2,3-d]pyrimidin-4-yl)-4,7-diaza-spiro[2.5]octane-4-carbonyl]-benzonitrile]	–	–	–	–	< 100	< 100	100 to 500	100 to 500
N#CCc1ccc(CC(=O)N2[C@@H]3CC[C@@H]2CN(c2ncnc4[nH]ccc24)C3)cc1 [Example 347, (4-{2-Oxo-2-[3-(7H-pyrrolo[2,3-d]pyrimidin-4-yl)-3,8-diaza-bicyclo[3.2.1]oct-8-yl]-ethyl}-phenyl)-acetonitrile]	100 to 500	100 to 500	> 500	> 500	–	–	–	–
NS(=O)(=O)c1ccc(OCC(=O)N2CCN(c3ncnc4[nH]ccc34)CC23CC3)cc1 [Example 399, 4-{2-Oxo-2-[7-(7H-pyrrolo[2,3-d]pyrimidin-4-yl)-4,7-diaza-spiro[2.5]oct-4-yl]-ethoxy}-benzenesulfonamide]	< 100	< 100	< 100	< 100	–	–	–	–
N#Cc1ccc(CC(=O)N2C[C@@H]3C[C@H]2CN3c2ncnc3[nH]ccc23)cc1 [Example 278, 4-{2-Oxo-2-[5-(7H-pyrrolo[2,3-d]pyrimidin-4-yl)-2,5-diaza-bicyclo[2.2.1]hept-2-yl]-ethyl}-benzonitrile]	> 500	> 500	> 500	> 500	–	–	–	–
NS(=O)(=O)c1ccc2[nH]c(C(=O)N3CCN(c4ncnc5[nH]ccc45)CC34CC4)cc2c1 [Example 186, 2-[7-(7H-Pyrrolo[2,3-d]pyrimidin-4-yl)-4,7-diaza-spiro[2.5]octane-4-carbonyl]-1H-indole-5-sulfonic acid amide]	–	–	–	–	< 100	< 100	< 100	< 100
CS(=O)(=O)c1ccc(C(=O)N2CCN(c3ncnc4[nH]ccc34)CC23CC3)cc1F [Example 370, (3-Fluoro-4-methanesulfonyl-phenyl)-[7-(7H-pyrrolo[2,3-d]pyrimidin-4-yl)-4,7-diaza-spiro[2.5]oct-4-yl]-methanone]	< 100	< 100	< 100	100 to 500	–	–	–	–
N#CC1CCN(C(=O)C2(C(=O)N3CCN(c4ncnc5[nH]ccc45)CC34CC4)CC2)C1 (centres unmarked) [Example 88, 1-{1-[7-(7H-Pyrrolo[2,3-d]pyrimidin-4-yl)-4,7-diaza-spiro[2.5]octane-4-carbonyl]-cyclopropanecarbonyl}-pyrrolidine-3-carbonitrile]	–	–	–	–	> 500	100 to 500	> 500	> 500
O=C(CC(F)(F)F)N1CCN(c2ncnc3[nH]ccc23)CC12CC2 [Example 24, 3,3,3-Trifluoro-1-[7-(7H-pyrrolo[2,3-d]pyrimidin-4-yl)-4,7-diazaspiro[2.5]oct-4-yl]propan-1-one]	–	–	–	–	< 100	< 100	< 100	> 500
O=C(C1Cc2ccccc21)N1CCN(c2ncnc3[nH]ccc23)CC12CC2 (centres unmarked) [Example 125, Bicyclo[4.2.0]octa-1(6),2,4-trien-7-yl-[7-(7H-pyrrolo[2,3-d]pyrimidin-4-yl)-4,7-diaza-spiro[2.5]oct-4-yl]-methanone]	–	–	–	–	< 100	< 100	100 to 500	> 500
N#Cc1ccc(C(=O)N2CCN(c3ncnc4[nH]ccc34)CC23CC3)s1 [Example 193, 5-[7-(7H-Pyrrolo[2,3-d]pyrimidin-4-yl)-4,7-diaza-spiro[2.5]octane-4-carbonyl]-thiophene-2-carbonitrile]	–	–	–	–	< 100	< 100	< 100	< 100
N#Cc1cccc(CC(=O)N2CCN(c3nc(N)nc4[nH]ccc34)CC23CC3)c1 [Example 311, 3-{2-[7-(2-Amino-7H-pyrrolo[2,3-d]pyrimidin-4-yl)-4,7-diaza-spiro[2.5]oct-4-yl]-2-oxo-ethyl}-benzonitrile]	100 to 500	100 to 500	100 to 500	> 500	–	–	–	–
COc1cnc2[nH]ccc2c1N1CCN(C(=O)c2ccccc2)C2(CC2)C1 [Example 283, [7-(5-Methoxy-1H-pyrrolo[2,3-b]pyridin-4-yl)-4,7-diaza-spiro[2.5]oct-4-yl]-phenyl-methanone]	> 500	100 to 500	100 to 500	> 500	–	–	–	–
Cn1c(C(=O)N2C3CCC2CN(c2ncnc4[nH]ccc24)C3)ccc1S(N)(=O)=O [Example 141, 1-Methyl-5-[3-(7H-pyrrolo[2,3-d]pyrimidin-4-yl)-3,8-diaza-bicyclo[3.2.1]octane-8-carbonyl]-1H-pyrrole-2-sulfonic acid amide]	–	–	–	–	< 100	< 100	< 100	> 500
N#Cc1ccccc1C(=O)N1CCN(c2ncnc3[nH]ccc23)CC12CC2 [Example 299, 2-[7-(7H-Pyrrolo[2,3-d]pyrimidin-4-yl)-4,7-diaza-spiro[2.5]octane-4-carbonyl]-benzonitrile]	< 100	< 100	100 to 500	100 to 500	–	–	–	–
Cc1ccsc1C(=O)N1CCN(c2ncnc3[nH]ccc23)CC12CC2 [Example 90, (3-Methyl-thiophen-2-yl)[7-(7H-pyrrolo[2,3-d]pyrimidin-4-yl)-4,7-diaza-spiro[2.5]oct-4-yl]-methanone]	–	–	–	–	< 100	< 100	100 to 500	100 to 500
N#Cc1cccc(CC(=O)N2CCN(c3ncnc4[nH]ccc34)CC23CC3)c1 [Example 25, 3-{2-Oxo-2-[7-(7H-pyrrolo[2,3-d]pyrimidin-4-yl)-4,7-diazaspiro[2.5]oct-4-yl]-ethyl}benzonitrile]	–	–	–	–	100 to 500	< 100	100 to 500	> 500
Cc1c[nH]c2ncnc(N3CCN(C(=O)c4cnccn4)C4(CC4)C3)c12 [Example 326, [7-(5-Methyl-7H-pyrrolo[2,3-d]pyrimidin-4-yl)-4,7-diaza-spiro[2.5]oct-4-yl]-pyrazin-2-yl-methanone]	> 500	> 500	> 500	> 500	–	–	–	–
CNS(=O)(=O)c1csc(C(=O)N2CCN(c3ncnc4[nH]ccc34)CC23CC3)c1 [Example 373, 5-[7-(7H-Pyrrolo[2,3-d]pyrimidin-4-yl)-4,7-diaza-spiro[2.5]octane-4-carbonyl]-thiophene-3-sulfonic acid methylamide]	< 100	< 100	< 100	< 100	–	–	–	–
O=C(c1ccccc1)N1[C@@H]2CC[C@H]1CN(c1ncnc3[nH]ccc13)C2 [Example 33, Phenyl-[3-(7H-pyrrolo[2,3-d]pyrimidin-4-yl)-3,8-diazabicyclo[3.2.1]oct-8-yl]methanone]	–	–	–	–	< 100	< 100	100 to 500	100 to 500
